B1: E3: humanized, affinity matured anti-NGF antagonist antibody; variable regions SEQ ID NO:1 and 2; human IgG2a (A330P331 to S330S331), kappa (antibody, V domains shown)
VH: QVQLQESGPGLVKPSETLSLTCTVSGFSLIGYDLNWIRQPPGKGLEWIGIIWGDGTTDYNSAVKSRVTISKDTSKNQFSLKLSSVTAADTAVYYCARGGYWYATSYYFDYWGQGTLVTVS
VL: DIQMTQSPSSLSASVGDRVTITCRASQSISNNLNWYQQKPGKAPKLLIYYTSRFHSGVPSRFSGSGSGTDFTFTISSLQPEDIATYYCQQEHTLPYTFGQGTKLEIKRT
modifications: human IgG2a constant (A330S/P331S) and kappa constant missing

Key:
[1] = CFA arthritis rats, body weight (Example 8); type: in vivo, rat; conditions: for body weight: arthritic rats
Procedure: Five groups of 10 animals (5-weeks old male Lewis rats-LEWIS Lew/Ico, from Charles River Laboratories—Belgium) each were included in this study: Group 1: non arthritic rats/saline (vehicle), i.v. bolus, n=10; Group 2: arthritic rats/saline (vehicle), i.v. bolus, n=10; Group 3: arthritic rats/Indomethacin 3 mg/kg, p.o daily over 10 days, n=10; Group 4: arthritic rats/E3, 1 mg/kg, i.v. bolus, n=10; Group 5: arthritic rats/911, 10 mg/kg, i.v. bolus, n=10. The doses were expressed in terms of free active substance (mg/kg). E3 and 911 were extemporaneously prepared in saline from the stock solution to the desired concentration. E3 1 mg/kg: 3.41 mL of the stock solution (0.88 mg/ml) q.s.p. 15 mL of saline. 911 10 mg/kg: 12 mL of the stock solution (2.5 mg/ml) q.s.p. 15 mL of saline. All diluted solutions (before i.v. injection) were sterilized using a sterile filter unit of 0.20.μm. pH and osmolarity values of diluted solutions were measured before each i.v. injection. Before the first i.v., osmolarity (mosm/L) for saline, E3, and 911 were 278, 269, and 308 respectively; pH for saline, E3, and 911 were 5.93, 6.76, 6.71 respectively. Before the second i.v., osmolarity (mosm/L) for saline, E3, and 911 were 280, 270, and 309 respectively; pH for saline, E3, and 911 were 5.86, 6.72, and 6.59 respectively.
E3 or 911 or saline were administered by i.v. bolus injection on Day 14 and Day 19 after arthritis induction in a coded and random order with a volume of 5 mL/kg. The non arthritic group was given by i.v. bolus injection of saline on Day 14 and Day 19 with a volume of 5 mL/kg. Indomethacin was extemporaneously prepared in 1% methylcellulose. Indomethacin was administered by oral route (p.o.) once daily over 10 days from Day 14 to Day 23 after arthritis induction in a coded and random order with a volume of 10 mL/kg.
The animals were weighed once daily from Day 0 to Day 24 (except during the week-end days before the treatment: D 1, D 2, D 8, D 9, D 10). All measurements were performed between 9:00 and 12:00 am except at D 14 (7:30-9:00 am) and D 24 (7:30-8:00 am).
(§1) All results were reported as Mean ±S.E.M. of 10 rats in each group at each time point. Paw volume was expressed in ml calculated from the mean value of the right and left paw volume. Arthritis index was calculated from the sum of the score obtained for each of the 4 paws. The nociceptive response was evaluated by the intensity of the level of vocalization recorded for each animal (mean of 4 values: 2 times/paw) in mV. The percentage inhibition of the nociceptive response was calculated from the mean value of the vehicle-treated arthritic group [(mean value of vehicle-treated arthritic group−mean value of treated arthritic group/mean value of vehicle-treated arthritic group)*100]. Body weight was expressed in grams. Hindpaws (left and right) weight was expressed in grams. Cytokine levels (IL-6, IL-1β, TNF-α and TGF-β1) of each hind paw was expressed in pg/ml. Circulating levels of TGF-β1 was expressed in pg/ml. Radiological index for each parameter (demineralization, erosions, periostal reaction, soft tissue damage, space joint, osteogenesis deformity) and total radiological index (total score) were calculated from the sum of the scores obtained for each parameter. The inter-group significances of the deviations between the values of vehicle-treated group (arthritic rats) and vehicle-treated group (non arthritic rats) were assessed by the Student t test or Mann-Whitney Rank Sum Test when equal variance or normality test failed. The inter-group significances of the deviations between the values of vehicle-treated group (arthritic rats) and E3- and 911- and Indomethacin-treated groups were assessed by the 1-way analysis of variance ANOVA followed by the non-paired Dunnett t test. A probability of P<0.05 was considered as significant. All statistical analysis was performed by the Sigmastat™ software.

[2] = tested on: complete Freund's adjuvant (CFA)-induced chronic arthritis; assay: CFA arthritis rats, X-ray analysis of hindpaws (radiological index); type: in vivo, rat; conditions: for X-ray score: Deformity / X-ray score: Demineralization / X-ray score: Erosions / X-ray score: Periostal reaction / X-ray score: Soft tissue damage / X-ray score: Space joint / X-ray score: osteogenesis: score 0-4
Procedure: On Day 24, after blood collecting the animals were sacrificed and X-ray radiographies (hindpaws) were obtained for assessment of joint lesions. X-ray analysis was focused on articular erosions, articular space, periosteum abnormalities on both hindpaws. All the radiographies were analyzed by looking at seven different items: the soft tissue damage, deformity, demineralization, joint space, erosions, osteogenesis and periostal reaction. For each animal, the first six items were analyzed independently by looking at the worse hind foot. The periostal reaction was analyzed by looking at the tail. For each item, the score goes from 0 (normal) to 4 (maximal damage). Therefore the total score goes from 0 to 28. The radiographic interpretation was done by the same reader without knowing anything about the animals (treated or not treated).
as §1

[3] = E3 1 mg/kg or 911 10 mg/kg i.v. D14+D19, indomethacin 3 mg/kg/day p.o., D24
[4] = before treatment (dosing starts D14), D3
[5] = before treatment (dosing starts D14), D4
[6] = before treatment (dosing starts D14), D5
[7] = before treatment (dosing starts D14), D6
[8] = before treatment (dosing starts D14), D7
[9] = before treatment (dosing starts D14), D11
[10] = before treatment (dosing starts D14), D12
[11] = before treatment (dosing starts D14), D13
[12] = group later given E3 1 mg/kg or 911 10 mg/kg i.v. D14+D19 or indomethacin 3 mg/kg/day p.o., D0
[13] = D14 (selection day, first dosing)
[14] = E3 1 mg/kg or 911 10 mg/kg i.v. D14+D19, indomethacin 3 mg/kg/day p.o., D15
[15] = E3 1 mg/kg or 911 10 mg/kg i.v. D14+D19, indomethacin 3 mg/kg/day p.o., D16
[16] = E3 1 mg/kg or 911 10 mg/kg i.v. D14+D19, indomethacin 3 mg/kg/day p.o., D17
[17] = E3 1 mg/kg or 911 10 mg/kg i.v. D14+D19, indomethacin 3 mg/kg/day p.o., D18
[18] = E3 1 mg/kg or 911 10 mg/kg i.v. D14+D19, indomethacin 3 mg/kg/day p.o., D19
[19] = E3 1 mg/kg or 911 10 mg/kg i.v. D14+D19, indomethacin 3 mg/kg/day p.o., D20
[20] = E3 1 mg/kg or 911 10 mg/kg i.v. D14+D19, indomethacin 3 mg/kg/day p.o., D21
[21] = E3 1 mg/kg or 911 10 mg/kg i.v. D14+D19, indomethacin 3 mg/kg/day p.o., D22
[22] = E3 1 mg/kg or 911 10 mg/kg i.v. D14+D19, indomethacin 3 mg/kg/day p.o., D23
[23] = arthritic rats, E3 1 mg/kg or 911 10 mg/kg i.v. D14+D19, indomethacin 3 mg/kg p.o., D24

Molecule | maximum body weight increase compared to vehicle-treated arthritic group [1, 3] | body weight [1, 4] [grams] | body weight [1, 5] [grams] | body weight [1, 6] [grams] | body weight [1, 7] [grams] | body weight [1, 8] [grams] | body weight [1, 9] [grams] | body weight [1, 10] [grams] | body weight [1, 11] [grams] | body weight [1, 12] [grams] | body weight [1, 13] [grams] | body weight [1, 14] [grams] | body weight [1, 15] [grams] | body weight [1, 16] [grams] | body weight [1, 17] [grams] | body weight [1, 18] [grams] | body weight [1, 19] [grams] | body weight [1, 20] [grams] | body weight [1, 21] [grams] | body weight [1, 22] [grams] | further results
COc1ccc2c(c1)c(CC(=O)O)c(C)n2C(=O)c1ccc(Cl)cc1 [Indomethacin, reference compound] | about 43 g | 217 ± 4 | 225 ± 4 | 235 ± 4 | 239 ± 4 | 246 ± 4 | 242 ± 7 | 235 ± 7 | 227 ± 6 | 202 ± 3 | 224 ± 5 | 230 ± 4 | 230 ± 5 | 231 ± 4 | 234 ± 4 | 236 ± 4 | 241 ± 4 | 246 ± 4 | 248 ± 5 | 253 ± 5 | body weight [1, 3]: 261±5 grams; decrease of X-ray total score in comparison to vehicle-treated arthritic rats ([2]; indomethacin 3 mg/kg/day p.o. 10 days): about 10.7; X-ray score: Deformity [2, 23]: 0.4 ± 0.2; X-ray score: Demineralization [2, 23]: 0.3 ± 0.2; X-ray score: Erosions [2, 23]: 0.9 ± 0.2; X-ray score: Periostal reaction [2, 23]: 0.7 ± 0.3; X-ray score: Soft tissue damage [2, 23]: 1.0 ± 0.2; X-ray score: Space joint [2, 23]: 1.0 ± 0.2; X-ray score: osteogenesis [2, 23]: 0.1 ± 0.1
B1 | about 46 g | 222 ± 3 | 230 ± 3 | 241 ± 3 | 243 ± 3 | 249 ± 3 | 242 ± 6 | 237 ± 6 | 230 ± 5 | 206 ± 4 | 225 ± 5 | 223 ± 5 | 224 ± 5 | 227 ± 4 | 232 ± 4 | 235 ± 4 | 238 ± 4 | 245 ± 4 | 250 ± 5 | 257 ± 5 | body weight [1, 3]: 264±5 grams; X-ray score: Deformity [2, 23]: 1.8 ± 0.2; X-ray score: Demineralization [2, 23]: 2.0 ± 0.2; X-ray score: Erosions [2, 23]: 2.4 ± 0.3; X-ray score: Periostal reaction [2, 23]: 0.8 ± 0.2; X-ray score: Soft tissue damage [2, 23]: 3.3 ± 0.3; X-ray score: Space joint [2, 23]: 2.7 ± 0.2; X-ray score: osteogenesis [2, 23]: 1.2 ± 0.2; X-ray TOTAL score ([2]; score 0-28, arthritic rats, E3 1 mg/kg or 911 10 mg/kg i.v. D14+D19, indomethacin 3 mg/kg p.o., D24): 14.2±1.3
